{
  "source": "patent US20230233544A1",
  "about": "“T-TYPE CALCIUM CHANNEL ENHANCER FOR TREATING TAF1 ASSOCIATED NEUROLOGICAL DEFECTS” (ARIZONA BOARD OF REGENTS ON BEHALF OF THE UNIVERSITY OF …, priority 2020, published 2023)",
  "key": {"cerebral cortex": {"test_system": "cerebral cortex", "conditions": "TAF1 edited animals; SAK3 0.25 mg/kg p.o.", "method": "(§1) After weaning, the rat pups were separated from the dams and maintained 4 per cage. Animals were divided into six groups. […] Rats were sacrificed at PD35. Animals were behaviorally assessed before being euthanized for histological and protein expression analysis. All biochemical, electrophysiology, and behavior experiments were performed in a blinded fashion. Animal protocols were approved by the Institutional Animal Care and Use Committee of the College of Medicine at the University of Arizona and conducted in accordance with the Guide for Care and Use of Laboratory Animals published by the National Institutes of Health.\n(§2) Intracerebroventricular injections: Bilateral intracerebroventricular (ICV) injections were performed as previously described in Sprague-Dawley (SD) rat pups on postnatal day 3. Briefly, newborn SD rat puts were anesthetized by isoflurane. A 10 μl syringe (Hamilton Gastight Syringe, #1701) was used to pierce the skull (coordinates from bregma: −0.6 mm posterior, ±1.75 mm lateral/medial, and −2.5 mm ventral), and 2.5 μl of CRISPR lentivirus (gRNA-control or gRNA-TAF1) was injected into each cerebral ventricle without opening the scalp. Neonatal rat pups were kept with the dam until weaned."}, "TAF1-edited animals": {"test_system": "TAF1-edited animals", "method": "as §1, §2"}, "cerebral cortex neurons": {"test_system": "cerebral cortex neurons", "conditions": "TAF1-edited animals", "method": "as §1, §2"}, "cleaved caspase 3": {"test_system": "cleaved caspase 3", "conditions": "TAF1 edited animals; SAK3 0.25 mg/kg p.o.; Western", "method": "as §1, §2\n(§3) Western blotting analysis: After decapitation of animals, brain tissue from the cerebellum was dissected, snap frozen in liquid nitrogen prior to storage at −80° C. until analysis. Western blot analyses were performed as described in Janakiraman et al (Janakiraman, U., Yu, J., Moutal, A., Chinnasamy, D., Boinon, L., Batchelor, S. N., Anandhan, A., Khanna, R., and Nelson, M. A. (2019) TAF1-gene editing alters the morphology and function of the cerebellum and cerebral cortex. Neurobiol Dis 132, 104539). In brief, frozen samples were homogenized with a RIPA buffer and centrifuged at 4 °C, 20,000xg for 20 min. Supernatant protein concentrations were determined using BCA method (Catalog No: #23227, Thermo Scientific), and samples were then boiled 5 min in Laemmli's sample buffer (Catalog No: NP0008, Life Technologies). Equal amounts of protein were loaded onto and run on SDS-polyacrylamide gels (Catalog No: #4568084, Bio-Rad) and then transferred to polyvinylidene difluoride membrane (Catalog No: #1620177, Bio-Rad). After transfer, membranes were blocked with TBST solution (50 mM Tris-HCl, pH 7.5, 150 mM NaCl, and 0.1% Tween 20) containing 5% non-fat dry milk at 4 °C for 1 hour. After blocking membranes were incubated overnight at 4° C. with anti-CaMKII (pan) (1:500; Cell Signaling), anti-phospho-CaMKII (Thr-286) (1:1000; Cell Signaling), anti-cleaved caspase-3 (Asp175) (1:1000; Cell Signaling), anti-Bax (1:1000; Cell Signaling) anti-Bcl-2 (1:1000; Abcam), anti-phospho-GSK3p(Ser9) (1:1000; Cell Signaling), anti-GSK3p (1:1000; Cell Signaling), anti-BDNF (1:750; Abcam), anti-Foxp2 (1:1000; Abcam), anti-CRMP2 pThr509/Thr514 (1:1000; Kina Source Limited), anti-CRMP2 (1:1000; Sigma), and 6111-Tubulin (1:1000; Promega) in 3% BSA."}, "FOXP2": {"test_system": "FOXP2", "conditions": "TAF1-edited animals; SAK3 0.25 mg/kg p.o.", "method": "as §1, §2, §3"}, "[1]": {"test_system": "B-cell lymphoma 2 (BcI-2)", "conditions": "TAF1 edited animals; SAK3 0.25 mg/kg p.o.; Western", "method": "as §1, §2, §3"}, "BDNF [2]": {"test_system": "BDNF", "conditions": "TAF1 edited animals; cerebral cortex samples; SAK3 0.25 mg/kg p.o.", "method": "as §1, §2, §3"}, "BCL2 Associated X (BAX)": {"test_system": "BCL2 Associated X (BAX)", "conditions": "TAF1 edited animals; SAK3 0.25 mg/kg p.o.; Western", "method": "as §1, §2, §3"}, "p-CaMKII": {"test_system": "p-CaMKII", "conditions": "cerebellum of TAF1 edited animals; SAK3 0.25 mg/kg p.o.", "method": "as §1, §2, §3"}, "Phospho (Ser 9)-GSK3β": {"test_system": "Phospho (Ser 9)-GSK3β", "conditions": "SAK3 0.25 mg/kg p.o.", "method": "as §1, §2, §3"}, "[3]": {"test_system": "phospho-CRMP2 (Thr 509/514)", "conditions": "TAF1 edited animals; SAK3 0.25 mg/kg p.o.", "method": "as §1, §2, §3"}, "GFAP-positive astrocytes": {"test_system": "GFAP-positive astrocytes", "conditions": "TAF1-edited animals; SAK3 0.25 mg/kg p.o.; vs TAF1 edited group", "method": "as §1, §2\n(§4) Rats (n=6 animals per experimental condition) were perfused with saline, and 4% formaldehyde in phosphate buffer saline (PBS) at PD 35, and the brains were extracted and post-fixed in 4% paraformaldehyde for 8 hours at 4° C. Cerebral cortex sections were cut sagittally at 20 μm using a cryostat (Microm HM 505 E). After rinsing the sections in PBS for 5 min, the sections were incubated with a 0.1% H2O2 solution in PBS for 5 min, rinsed in PBS for 5 times for 5 min, and incubated for 30 min with 0.4% Triton X-100, rinsed in PBS and blocked with 8% goat serum and 1% Triton X-100 in PBS. After blocking, the sections were incubated at 4° C. overnight with the indicated antibodies diluted in 4% goat serum in PBS. The sections were washed in 1% goat serum in PBS, incubated with secondary antibody anti-rabbit Alexa fluor 488 (Life Technologies) or anti-mouse Alexa fluor 488 (Life Technologies), as needed, in 4% goat serum for 2 h, washed with PBS 3 times for 5 mins, and incubated with DAPI (Catalogue No: D1306, Thermofisher Scientific) at a concentration of 50 ng/ml for 2 mins. Sections were then washed and further air dried, and coverslip with glycerol."}, "[4]": {"test_system": "AKT (phosphorylated at Ser 473)", "conditions": "cortex of TAF-1 edited animals; SAK3 0.25 mg/kg p.o.", "method": "as §1, §2, §4"}, "CaV3.1 T-type channel": {"test_system": "CaV3.1 T-type channel", "conditions": "TAF-1 edited animals; SAK3 0.25 mg/kg p.o.", "method": "as §1, §2, §4"}, "BDNF [5]": {"test_system": "BDNF", "conditions": "TAF1 edited animals; SAK3 0.25 mg/kg p.o.", "method": "as §1, §2, §4"}, "Iba1-positive microglia": {"test_system": "Iba1-positive microglia", "conditions": "TAF1-edited animals; SAK3 0.25 mg/kg p.o.; vs TAF1 edited group", "method": "as §1, §2, §4"}, "[6]": {"test_system": "TAF1 Intellectual Disability Syndrome", "text": "A child is brought by their parent to see their pediatrician for a routine childhood check-up. During the check-up, the pediatrician notices some minor motor deficits in the child. The pediatrician communicates their concerns about the child to their parent. […] A week later, the child is taken in for genetic testing. A month later, the child is brought back to the pediatrician's office so that the pediatrician may discuss the genetic testing results with their parents."}, "[7]": {"test_system": "gRNA-TAF1 edited Purkinje cells", "conditions": "gRNA-TAF1 edited Purkinje cells in cerebellar slices", "method": "as §2"}, "[8]": {"conditions": "SAK3 0.25 mg/kg p.o. PD21 to PD35, vs TAF1-edited animals"}},
  "data": [
    {"smiles": "CCOC(=O)C1=C(N2CCCCC2)C2(CC1=O)C(=O)N=C1C(C)=CC=CN12", "note": "(stereo not drawn) [SAK3, ethyl 8′-methyl-2′, 4-dioxo-2-(piperidin-1-yl)-2′H-spiro [cyclopent[2]ene-1,3′-imidazo[1,2-a]pyridine]-3-carboxylate]", "values": [
      {"measurement": "Number of TUNEL positive cells", "setting": "cerebral cortex", "result": "reduced the number of TUNEL positive cells to control levels"},
      {"measurement": "Grooming frequency (number of groomings)", "setting": "TAF1-edited animals; SAK3 0.25 mg/kg p.o. PD21 to PD35, open field 5 min", "result": "blunted by SAK3 treatment"},
      {"measurement": "Beam crossing time", "setting": "TAF1-edited animals; [8]", "result": "rescue of the beam crossing time"},
      {"measurement": "Number of foot slip errors", "setting": "TAF1-edited animals; [8]", "result": "rescue of the beam crossing time and foot slip errors"},
      {"measurement": "Morphology of the cells in the cortex (Nissl staining)", "setting": "cerebral cortex neurons; SAK3 0.25 mg/kg p.o. PD21 to PD35", "result": "improved the morphology of the cells in the cortex"},
      {"measurement": "Number of viable cells in the cerebral cortex", "setting": "cerebral cortex neurons; SAK3 0.25 mg/kg p.o., vs TAF1-edited animals", "result": "increased the number of viable cells"},
      {"measurement": "Activated (cleaved) caspase 3 level", "setting": "cleaved caspase 3", "result": "downregulation of activated caspase 3"},
      {"measurement": "FOXP2 levels", "setting": "FOXP2", "result": "restored FOXP2"},
      {"measurement": "Bcl-2 level", "setting": "[1]", "result": "up-regulation of B-cell lymphoma 2 (BcI-2)"},
      {"measurement": "BDNF expression (Western analysis)", "setting": "BDNF [2]", "result": "restored BDNF expression to the levels in Naïve and gRNA-control groups"},
      {"measurement": "BAX level", "setting": "BCL2 Associated X (BAX)", "result": "downregulation of the pro-apoptotic factor BCL2 Associated X (BAX)"},
      {"measurement": "CaMKII activation (phosphorylation at T286)", "setting": "p-CaMKII", "result": "restoration of CaMKII activation in the cerebellum of SAK3 treated animals was not observed"},
      {"measurement": "Phospho (Ser 9)-GSK3β levels", "setting": "Phospho (Ser 9)-GSK3β; TAF1 edited animals, cerebral cortex samples", "result": "increased phopho-GSK3β levels"},
      {"measurement": "p-GSK3β levels", "setting": "Phospho (Ser 9)-GSK3β; gRNA-TAF1 edited animals, cerebellum samples", "result": "rescued by SAK3 treatment"},
      {"measurement": "phospho-CRMP2 (Thr 509/514) levels", "setting": "[3]", "result": "restored phospho-CRMP2 levels"},
      {"measurement": "Number of GFAP-positive cells", "setting": "GFAP-positive astrocytes", "result": "increase the number of GFAP-positive cells"},
      {"measurement": "Activated AKT (phosphorylated at Ser 473) expression", "setting": "[4]", "result": "prevented by SAK3 treatment"},
      {"measurement": "CaV3.1 T-type channel expression", "setting": "CaV3.1 T-type channel", "result": "restored by SAK3 treatment"},
      {"measurement": "BDNF expression (immunofluorescence, BDNF-positive cells)", "setting": "BDNF [5]", "result": "restored BDNF expression to the levels in Naïve and gRNA-control groups"},
      {"measurement": "Number of Iba1-positive cells", "setting": "Iba1-positive microglia", "result": "decrease the number of Iba1-positive cells"},
      {"measurement": "Motor skills and cognitive abilities", "setting": "[6]; child with TAF1 ID syndrome, SAK3 composition orally, after six months", "result": "improved motor skills and cognitive abilities"},
      {"measurement": "Side effects", "setting": "[6]; in vivo, po", "result": "No side effects reported"},
      {"measurement": "Amplitudes of sEPSC", "setting": "[7]; SAK3 0.1 nM", "result": "No changes"},
      {"measurement": "Frequency of sEPSC", "setting": "[7]; SAK3 0.1 nM in perfusion, held at −70 mV, mean±S.E.M.", "result": "2.13±0.29", "unit": "Hz"}
    ]}
  ]
}
